From patent US20060025474A1, “Bisphenyl compounds useful as vitamin D3 receptor agonists” (priority 2004, published 2006)

Tested on: ECAC2 mRNA in Caco-2 cells
Type: cell-based
Protocol: The mRNA Expression Assay of ECAC2 in Caco-2 Cells
The dispersed cells were plated in 48-well plate at a concentration of 6.3×10^4 cells/well and incubated for 4 days at 37° C. The culture medium (Dulbecco's Modified Eagle Medium (D-MEM) without NaHCO3 with 44 mM NaHCO3, 1 mM non-essential amino acids, and 2 mM L-glutamine, 90%; fetal bovine serum, 10%) was then replaced with the same medium containing various concentrations of LG190178 (the compound disclosed in WO00/10958 and the corresponding U.S. Pat. No. 6,218,430 B1) or the compounds of the present invention, and cells were cultured for 1 day at 37° C. The culture medium containing the compounds was changed twice per day.
Total RNA Isolation from Caco-2 Cell
Total RNA was isolated from Caco-2 cell following ABI PRISM™ 6100 Nucleic Acid PrepStation protocol from Applied Biosystems.
Real Time RT-PCR Assay of ECAC2
ECAC2 mRNA expression was determined using TaqMan One-step RT-PCR Master Mix Reagents Kit and PRISM7000 systems from Applied Biosystems.
Primer information and cycle conditions are 1)ECAC2, forward 5′-[…]-3′, reverse 5′-GTCCTCTGTCTGGMGATGA-3′, Taqman probe 5′-[…]-3′, 55 cycles, annealing temperature (Ta)=60° C.; 2)GAPDH, forward 5′-GMGGTGMGGTCGGAGTC-3′, reverse 5′-GMGATGGTGATGGGATTTC-3′, Taqman probe 5′-[…]-3′, 55 cycles, Ta=60° C. ECAC2 mRNA values were normalized for the expression of GAPDH mRNA within each sample.
Comparison of ECAC2 mRNA Value
The EC50 values of ECAC2 mRNA values were analyzed by Emax models. The ECAC2 mRNA ratio was calculated as the ratio of the EC50 value of the compounds to that of LG190178. ECAC2 is a channel-like transporter mediating intestinal calcium absorption. It is described in J Biol Chem. Aug. 6, 1999; 274(32):22739-46 for example.

ECaC-2 mRNA induction activity in Caco-2 cells [%]	SMILES
918	CCC(CC)(c1ccc(/C=C/C(O)(C(F)(F)F)C(F)(F)F)c(C)c1)c1ccc(OC[C@H]2CCCC(=O)O2)c(C)c1 [Example 61, (R)-6-(4-{1-ethyl-1-[3-methyl4-((E)4,4,4-trifluoro-3-hydroxy-3-trifluoromethyl-but-1-enyl)-phenyl]-propyl}-2-methyl-phenoxymethyl)-tetrahydro-pyran-2-one]
410	CCC(CC)(c1ccc(/C=C/C(O)(C(F)(F)F)C(F)(F)F)c(C)c1)c1ccc(OC[C@H](O)CCCC(=O)O)c(C)c1 [Example 62, (R)-6-(4-{1-Ethyl-1-[3-methyl-4-((E)-4,4,4-trifluoro-3-hydroxy-3-trifluoromethyl-but-1-enyl)-phenyl]-propyl}-2-methyl-phenoxy)-5-hydroxy-hexanoic acid]
90	CCC(O)(/C=C/c1ccc(C(CC)(CC)c2ccc(OC[C@@H](O)CO)c(C)c2)cc1C)CC [Example 64, (S)-3-(4-{1-ethyl-1-[4-((E)-3-ethyl-3-hydroxy-pent-1-enyl)-3-methyl-phenyl]-propyl}-2-methyl-phenoxy)-propane-1,2-diol]
126	CCC(CC)(c1ccc(C#CC(O)C(C)(C)C)c(C)c1)c1ccc(OC[C@@H](O)CO)c(C)c1 (stereo partly drawn) [Example 66, 3-(4-{1-ethyl-1-[4-(3-hydroxy-4,4-dimethyl-pent-1-ynyl)-3-methyl-phenyl]-propyl}-2-methyl-phenoxy)-propane-1,2(S)-diol]
860	CCC(CC)(c1ccc(/C=C/C(O)C(C)(C)C)c(C)c1)c1ccc(OC[C@@H](O)CO)c(C)c1 (stereo partly drawn) [Example 67, 3-(4-{1-ethyl-1-[4-((E)-3-hydroxy-4,4-dimethyl-pent-1-enyl)-3-methyl-phenyl]-propyl}-2-methyl-phenoxy)-propane--1,2(S)-diol]
355	CCC(CC)(c1ccc(C#CC(O)(C(F)(F)F)C(F)(F)F)c(C)c1)c1ccc(OC[C@@H](O)CO)c(C)c1 [Example 68, 3-(4-{1-Ethyl-1-[3-methyl4-(4,4,4-trifluoro-3-hydroxy-3-trifluoromethyl-but-1-ynyl)-phenyl]-propyl}-2-methyl-phenoxy)-propane-1,2(S)-diol]
>10000	CCC(CC)(c1ccc(/C=C/C(O)(C(F)(F)F)C(F)(F)F)c(C)c1)c1ccc(OC[C@@H](O)CO)c(C)c1 [Example 69, (S)-3-(4-{1-ethyl-1-[3-methyl-4-((E)-4,4,4-trifluoro-3-hydroxy-3-trifluoromethyl-but-1-enyl)-phenyl]-propyl}-2-methyl-phenoxy)-propane-1,2-diol]
542	CCC(O)(/C=C/c1ccc(C(CC)(CC)c2ccc(OCC(CO)CO)c(C)c2)cc1C)CC [Example 72, 2-(4-{1-Ethyl-1-[4-((E)-3-ethyl-3-hydroxy-pent-1-enyl)-3-methyl-phenyl]-propyl}-2-methyl-phenoxymethyl)-propane-1,3-diol]
309	CCC(CC)(c1ccc(/C=C/C(O)C(C)(C)C)c(C)c1)c1ccc(OCC(CO)CO)c(C)c1 (stereo not shown) [Example 75, 2-(4-{1-ethyl-1-[4-((E)-3-hydroxy-4,4-dimethyl-pent-1-enyl)-3-methyl-phenyl]-propyl}-2-methyl-phenoxymethyl)-propane-1,3-diol]
534	CCC(CC)(c1ccc(C#CC(O)(C(F)(F)F)C(F)(F)F)c(C)c1)c1ccc(OCC(CO)CO)c(C)c1 [Example 77, 2-(4-{1-ethyl-1-[3-methyl-4-(4,4,4-trifluoro-3-hydroxy-3-trifluoromethyl-but-1-ynyl)-phenyl]-propyl}-2-methyl-phenoxymethyl)-propane-1,3-diol]
6659	CCC(CC)(c1ccc(/C=C/C(O)(C(F)(F)F)C(F)(F)F)c(C)c1)c1ccc(OCC(CO)CO)c(C)c1 [Example 78, 2-(4-{1-ethyl-1-[3-methyl-4-((E)-4,4,4-trifluoro-3-hydroxy-3-trifluoromethyl-but-1-enyl)-phenyl]-propyl}-2-methyl-phenoxymethyl)-propane-1,3-diol]
178	CCC(CC)(c1ccc(CCC(O)(C(F)(F)F)C(F)(F)F)c(C)c1)c1ccc(OCC(CO)CO)c(C)c1 [Example 79, 2-(4-{1-ethyl-1-[3-methyl-4-(4,4,4-trifluoro-3-hydroxy-3-trifluoromethyl-butyl)-phenyl]-propyl}-2-methyl-phenoxymethyl)-propane-1,3-diol]
518	CCC(CC)(c1ccc(CCC(O)C(C)(C)C)c(C)c1)c1ccc(OCCCCC(=O)O)c(C)c1 (stereo not shown) [Example 80, 5-(4-{1-ethyl-1-[4-(3-hydroxy-4,4-dimethyl-pentyl)-3-methyl-phenyl]-propyl}-2-methyl-phenoxy)-pentanoic acid]
102	CCC(O)(/C=C/c1ccc(C(CC)(CC)c2ccc(OCCCCC(=O)O)c(C)c2)cc1C)CC [Example 81, 5-(4-{1-Ethyl-1-[4-((E)-3-ethyl-3-hydroxy-pent-1-enyl)-3-methyl-phenyl]-propyl}-2-methyl-phenoxy)-pentanoic acid]
1843	CCC(CC)(c1ccc(/C=C/C(O)(C(F)(F)F)C(F)(F)F)c(C)c1)c1ccc(OCCCCC(=O)O)c(C)c1 [Example 84, 5-(4-{1-ethyl-1-[3-methyl-4-((E)-4,4,4-trifluoro-3-hydroxy-3-trifluoromethyl-but-1-enyl)-phenyl]-propyl}-2-methyl-phenoxy)-pentanoic acid]
289	CCC(CC)(c1ccc(/C=C/C2(O)CCCC2)c(C)c1)c1ccc(OCCCCC(=O)O)c(C)c1 [Example 86, 5-[4-(1-ethyl-1-{4-[(E)-2-(1-hydroxy-cyclopentyl)-vinyl]-3-methyl-phenyl}-propyl)-2-methyl-phenoxy]-pentanoic acid]
845	CCC(CC)(c1ccc(/C=C/C2(O)CCCCC2)c(C)c1)c1ccc(OCCCCC(=O)O)c(C)c1 [Example 88, 5-[4-(1-ethyl-1-{4-[(E)-2-(1-hydroxy-cyclohexyl)-vinyl]-3-methyl-phenyl}-propyl)-2-methyl-phenoxy]-pentanoic acid]
226	CCC(CC)(c1ccc(/C=C/C(O)(C(F)(F)F)C(F)(F)F)c(C)c1)c1ccc(OCCCCCC(=O)O)c(C)c1 [Example 92, 6-(4-{1-Ethyl-1-[3-methyl-4-((E)4,4,4-trifluoro-3-hydroxy-3-trifluoromethyl-but-1-enyl)-phenyl]-propyl}-2-methyl-phenoxy)-hexanoic acid]
166	CCC(CC)(c1ccc(CCC(O)C(C)(C)C)c(C)c1)c1ccc(OCCCCCN)c(C)c1 (stereo not shown) [Example 102, 1-(4-{1-[4-(5-amino-pentyloxy)-3-methyl-phenyl]-1-ethyl-propyl}-2-methyl-phenyl)-4,4-dimethyl-pentan-3-ol]
